Several values for one entry are separate records, joined by “and”; a condition that tells them apart may be missing. Identical values can stand only once.

Results on one compound are retold here after patent US7429396B2, “Antifungal composition, its fungicidal effect on pathogenic dermatophytes, and process for inhibiting growth of fungi” (Bio-Botanica, Inc., priority 2003, dated 2008).

One assay has as its system E. coli ATCC 25922. The assay can be described thus: Agar Dilution susceptibility method (Example 5). The format is cell-based, Escherichia coli. The method, then:
(§1) The Agar Dilution susceptibility method was used to test the effectiveness of the antimicrobial composition of Example 1. The organisms used were S. aureus ATCC 29213, E. coli ATCC 25922, S. typhimurium ATCC 14028, K. pneumoniae ATCC 10031, P. aeruginosa ATCC 27853, C. albicans ATCC 10231, and M. smegmatis ATCC 14468. The organisms were maintained on Tryptic Soy Agar (TSA) slants. For each week, the organisms were cultured in 10 ml of Tryptic Soy Broth (TSB). After incubation at 37° C. for 17 hours (48 hours for M. smegmatis), the organism suspensions were diluted with 10 ml of sterile saline as shown in Table 4. The mold Aspergillus niger was sustained on a Sabouraud Dextrose Agar slant. The sample was then cultured in 10 ml of Tryptic Soy Broth and incubated for 7 days at 22° C. The mold was then diluted in 0.1% Tween 80 in saline. The diluted bacteria and yeast organisms were then inoculated onto the prepared sample plates with a 1 μl loop. The mold Aspergillus niger was added to prepared sample tubes with a 100 μl pipette.
(§2) Phenyloxyethanol (PE), phenylethyl alcohol (PEA) and methyl/propylparabens (MP) in a ratio of 5:4 were initially screened at their commonly recommended effective concentrations of 0.3% v/v (3 μl/ml); 1% v/v (10 μl/ml); and 0.18% w/v (1 mg methyl and 0.8 mg propylparaben/ml), respectively. The antimicrobial agent was used at an initial concentration of 0.15% v/v (1.5 μl/ml).
(§3) The sample plates for the bacteria and yeast were prepared as follows: • Prepare 10 ml tubes of TSA and allow to cool to 50° C., • Add the calculated amount of the preservative or antimicrobial agent to 100 μl dimethylsulfoxide (DMSO) to achieve the specified concentration per ml TSA when 100 μl of the DMSO solution are added to a test tube containing 10 ml of TSA, • Vortex to homogenize the mixture in TSA, • Pour TSA and the preservative or antimicrobial agent into a properly labeled Petri dish, • Allow to cool overnight at room temperature.
(§4) The prepared sample plates were divided into seven sections and the plates labeled according to the preservative or antimicrobial agent. Each section was labeled according to the microorganism to be applied to each section. The diluted organism suspensions were inoculated onto their appropriate section with a 1 μl loop, streaking radially from the center to the outer edge of the plate. A positive control plate was prepared without a preservative or antimicrobial agent of Example 1. The plates were then incubated at 37° C. for 48 hours, recording the results at 24 and 48 hours.
(§5) The results for the bacteria and yeast were scored in relation to the growth present on the positive control plate. Growth (G) was noted when there was full growth visible and the organism was not affected. […]
In general terms: Agar dilution tests growth on a series of plates holding different concentrations.

The next assay deals with A. niger ATCC 16404. Put plainly: Broth tube susceptibility test of the mold (Example 5). The format is cell-based, Aspergillus niger. On the procedure:
as §1
The sample for the mold Aspergillus niger was prepared as follows: • Prepare 10 ml tubes of Tryptic Soy Broth (TSB), • Add the calculated amount of the sample to 100 μl dimethylsulfoxide (DMSO) to achieve the specified concentration per ml TSB. Then 100 μl of the DMSO is added to a test tube containing 10 ml of TSB, • Vortex to homogenize the mixture in TSB, • Add 100 μl of Aspergillus niger suspension to a tube of TSB not inoculated with any sample as a positive control.
The prepared sample tubes were inoculated with 100 μl of the mold Aspergillus niger suspension to produce a final mold spore concentration in each sample tube of 1×10^4 to 1×10^5 spores/ml. The prepared sample tubes of TSB were incubated at 37° C. for 5 days with the results being recorded at 3 and 5 days.
The results for Aspergillus niger were scored in relation to the growth present in the positive control tube. The growth (G) was noted when there was full growth visible as determined by the tube appearing cloudy to the same extent as the positive control tube. Partial activity (P) was recorded when the sample tube of TSB was less turbid than the control tube. No growth (I) was recorded when there was total inhibition and broth in the tube appeared clear.
(§6) In this example and the tables, the amount of the antimicrobial agent is expressed in terms of the volume of antimicrobial sample. The concentration of the antimicrobial agent of 1 μl/ml corresponds to 1 mg (milligram)/ml of the antimicrobial agent. The MIC obtained was confirmed by three consecutive results. DMSO was used to solubilize the test samples and help to diffuse the lipophilic ingredients into the agar. DMSO was used at a concentration not exceeding 1%.

The next assay relates to P. aeruginosa ATCC 27853. Put plainly: Agar Dilution susceptibility method (Example 5). It counts as cell-based, Pseudomonas aeruginosa. On the procedure:
as §1, §2
(§7) The sample plates for the bacteria and yeast were prepared as follows: • Prepare 10 ml tubes of TSA and allow to cool to 50° C., • Add the calculated amount of the preservative or antimicrobial agent to 100 μl dimethylsulfoxide (DMSO) to achieve the specified concentration per ml TSA when 100 μl of the DMSO solution are added to a test tube containing 10 ml of TSA, • Vortex to homogenize the mixture in TSA, • Pour TSA and the preservative or antimicrobial agent into a properly labeled Petri dish, • Allow to cool overnight at room temperature. […]
(§8) The results for the bacteria and yeast were scored in relation to the growth present on the positive control plate. […]

A further assay concerns K. pneumoniae ATCC 10031. The assay can be described thus: Agar Dilution susceptibility method (Example 5). It counts as cell-based, Klebsiella pneumoniae. The method, then: as §1, §2, §3, §4, §5, §6
Another assay deals with C. albicans ATCC 10231. The assay can be described thus: Agar Dilution susceptibility method (Example 5). It counts as cell-based, Candida albicans. The method, then:
as §1, §2, §3, §4, §5

A further assay has as its system S. aureus ATCC 29213. Put plainly: Agar Dilution susceptibility method (Example 5). It counts as cell-based, Staphylococcus aureus. On the procedure:
as §1, §2, §7, §8

On to `OCCc1ccccc1` [Phenylethyl Alcohol], for which the “Minimum Inhibitory Concentration (MIC) (sample/ml of agar or broth)” value is 5.0 μl/ml in the assay on E. coli ATCC 25922; 2.5 μl/ml with A. niger ATCC 16404; 5.0 μl/ml with P. aeruginosa ATCC 27853; 5.0 μl/ml in the assay on K. pneumoniae ATCC 10031; 2.5 μl/ml and 3.0 μl/ml with C. albicans ATCC 10231; 10.0 μl/ml in the assay with S. aureus ATCC 29213. The growth score result in the assay on E. coli ATCC 25922 (3.0 μl/ml), with E. coli ATCC 25922 (5.0 μl/ml), with E. coli ATCC 25922 (6.0 μl/ml), in the assay with A. niger ATCC 16404 (3.0 μl/ml), in the assay with A. niger ATCC 16404 (5.0 μl/ml) and with A. niger ATCC 16404 (6.0 μl/ml) was “I” in each case. Further, the growth score entry in the assay with P. aeruginosa ATCC 27853 (5.0 μl/ml), with P. aeruginosa ATCC 27853 (6.0 μl/ml), in the assay with K. pneumoniae ATCC 10031 (1.5 μl/ml), with K. pneumoniae ATCC 10031 (3.0 μl/ml), with K. pneumoniae ATCC 10031 (5.0 μl/ml) and in the assay with K. pneumoniae ATCC 10031 (6.0 μl/ml) was “I” in each case. The growth score result with C. albicans ATCC 10231 (3.0 μl/ml), in the assay on C. albicans ATCC 10231 (5.0 μl/ml), in the assay on C. albicans ATCC 10231 (6.0 μl/ml) and with S. aureus ATCC 29213 (6.0 μl/ml) was “I” each time. The “effect on S. aureus” value in the assay with S. aureus ATCC 29213 (0.3 wt %) is “no effect”.
